From patent US20240260573A1, “HEAT TOLERANCE-INDUCING AGENT FOR PLANTS AND METHOD FOR INDUCING HEAT TOLERANCE OF PLANTS” (AGC Inc., priority 2021, published 2024) come the findings set out here.

A short description of series [1]: Measurement of active ingredient support ratio (solvent extraction / gas chromatography). The series is classed as physicochemical. The protocol:
First, 5 g of a mixed solvent of chloroform:methanol=9:1 (volume ratio) was added to the vial containing the sample, and the mixture was stirred for one minute to extract the supported 2-hexenal. Hexadecane was then added as an internal standard, and the resulting mixture was filtered. The thus obtained filtrate (the extract solution containing the internal standard) was analyzed by gas chromatography, and the amount (mg) of supported 2-hexenal was calculated using a calibration curve prepared in advance using hexadecane as an internal standard. The support ratio (%) of 2-hexenal within 100% of the sample was determined from the calculated supported amount (mg) and the mass of the sample inside the vial.
With the exception that chloroform was added to the vial containing the sample to dissolve the sample, hexadecane was added to the resulting solution as an internal standard, and analysis was then conducted by gas chromatography (7890A apparatus manufactured by Agilent Technologies, Inc.), the support ratio (%) of 2-hexenal within 100% of the sample was determined in the same manner as that described above in [Evaluation 1a].
In Example 12, because 2-hexenal was used alone, the initial 2-hexenal support ratio was deemed to be 100%.
With the exception of using 3-hepten-2-one instead of 2-hexenal as the active ingredient, evaluations were conducted in the same manner as Example 1. […]

The nature of series [2]: Measurement of active ingredient retention rate after 7 days open storage at 23° C. or 50° C. Format: physicochemical. As to conditions: for residual active ingredient after storage (in words): after 7 days storage at either 23° C. or 50° C. The protocol: The vial containing the sample was stored, without a lid attached, in an environment at either 23° C. or 50° C. for a period of 7 days. Following this storage period, the support ratio (%) of 2-hexenal was determined in the same manner as that described above in [Evaluation 1a].
Based on the measurement results, the 2-hexenal retention rates following storage at 23° C. and at 50° C. were each calculated using the formula below. In the formula, the [initial 2-hexenal content] represents the value determined in the above “Measurement of 2-Hexenal Support Ratio”.
2-Hexenal retention rate (%)=2-hexenal support ratio (%) after storage/initial 2-hexenal support ratio (%)×100
The vial containing the sample was stored in an environment at either 23° C. or 50° C. for a period of 7 days. Following this storage period, the support ratio (%) of 2-hexenal was determined in the same manner as that described above in [Evaluation 2a].
Based on the measurement result, the 2-hexenal retention rate (%) was determined in the same manner as that described above in [Evaluation 1b].
The vial containing the sample was stored in an environment at either 23° C. or 50° C. for a period of 7 days. Following this storage period, the sample mass (g) remaining in the vial was measured, and this value was deemed the 2-hexenal support ratio (%) after storage.
With the exception of using 3-hepten-2-one instead of 2-hexenal as the active ingredient, evaluations were conducted in the same manner as Example 1.
An agent prepared by mixing trioxane and 3-hepten-2-one (in a mass ratio of 100:0.35) and then freeze drying the mixture was used as a heat tolerance-inducing agent, and evaluations were conducted in the same manner as Example 11.
Example 15 used 3-hepten-2-one alone as a heat tolerance-inducing agent. Evaluations were conducted in the same manner as Example 12.

[3] abbreviates: sample for 23° C. storage, before storage.
Setting [4] is: sample for 50° C. storage, before storage.

As to `CCCC=CC=O` [Example 12, 2-hexenal], the 2-hexenal support ratio in series [1] (2-hexenal used alone, initial support ratio deemed to be 100%) amounted to 100%. Also, in series [2] (23° C., 7 days, vial without lid), the “2-hexenal support amount, Storage at 23° C., After 7 days” value stood at 0 mg. The “2-hexenal support amount, Storage at 50° C., After 7 days” value in series [2] (50° C., 7 days, vial without lid) is 0 mg. In series [2] (after 7 days storage at 23° C.), the “2-hexenal retention rate 23° C.” value worked out at 0%. Moreover, the “2-hexenal retention rate 50° C.” value in series [2] (after 7 days storage at 50° C.) came to 0%. For the same compound, the “residual active ingredient after storage (in words)” value in series [2] is given as “no residual active ingredient was retained”. Further, the “2-hexenal support amount, Storage at 23° C., Initial” value in series [2] (setting [3]) stood at 13 mg. Besides, the “2-hexenal support amount, Storage at 50° C., Initial” value in series [2] (setting [4]) is on record as 12.5 mg.
In the case of `CCCC=CC(C)=O` [Example 15, 3-hepten-2-one], the 3-hepten-2-one support ratio in series [1] (3-hepten-2-one used alone, evaluated as Example 12 (deemed 100%)) stood at 100%. Besides, in series [2] (23° C., 7 days), the “3-hepten-2-one support amount, Storage at 23° C., After 7 days” value worked out at 0 mg. Moreover, the “3-hepten-2-one support amount, Storage at 50° C., After 7 days” value in series [2] (50° C., 7 days) amounted to 0 mg. Besides, in series [2] (after 7 days storage at 23° C.), the “3-hepten-2-one retention rate 23° C.” value turned out to be 0%. In series [2] (after 7 days storage at 50° C.), the “3-hepten-2-one retention rate 50° C.” value is on record as 0%. The “residual active ingredient after storage (in words)” value in series [2] is on record as “no residual active ingredient was retained”. Further, the “3-hepten-2-one support amount, Storage at 23° C., Initial” value in series [2] (setting [3]) was found to be 11.5 mg. In addition, the “3-hepten-2-one support amount, Storage at 50° C., Initial” value in series [2] (setting [4]) came to 10.7 mg.
